From US9242970B2 (ACTELION PHARMACEUTICALS LTD., priority 2010, dated 2016)
Like-named read-outs stand apart in the source and are kept apart here. Blank lines part the entries; values can stand above or below the compound they belong to.

Legend:
human orexin-1 receptor = human orexin-1 receptor (Homo sapiens (Human), UniProt O43613); assay: In vitro assay: intracellular calcium measurements (FLIPR), antagonistic activity; assay type: cell-based; details: CHO cells, 3 nM orexin-A, marked values are geometric means of n = 2-6, read-out: IC50 OX1
human orexin-2 receptor = human orexin-2 receptor (Homo sapiens (Human), UniProt O43614); assay: as above; assay type: cell-based; details: CHO cells, 3 nM orexin-A, marked values are geometric means of n = 2-6, read-out: IC50 OX2
[1] = compound incubation time of 10 min

Chain of human orexin-1 receptor (O43613 whole entry): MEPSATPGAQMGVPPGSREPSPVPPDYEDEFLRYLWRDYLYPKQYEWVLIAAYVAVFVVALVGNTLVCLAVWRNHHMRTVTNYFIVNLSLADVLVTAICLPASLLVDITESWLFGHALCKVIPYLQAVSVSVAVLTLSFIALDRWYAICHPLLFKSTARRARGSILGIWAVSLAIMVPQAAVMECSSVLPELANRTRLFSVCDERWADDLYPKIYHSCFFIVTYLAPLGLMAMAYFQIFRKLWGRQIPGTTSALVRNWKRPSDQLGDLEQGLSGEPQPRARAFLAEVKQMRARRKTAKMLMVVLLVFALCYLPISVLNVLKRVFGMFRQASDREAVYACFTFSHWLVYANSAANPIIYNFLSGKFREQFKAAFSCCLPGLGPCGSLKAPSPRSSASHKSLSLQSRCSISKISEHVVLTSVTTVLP
Chain of human orexin-2 receptor (O43614 whole entry): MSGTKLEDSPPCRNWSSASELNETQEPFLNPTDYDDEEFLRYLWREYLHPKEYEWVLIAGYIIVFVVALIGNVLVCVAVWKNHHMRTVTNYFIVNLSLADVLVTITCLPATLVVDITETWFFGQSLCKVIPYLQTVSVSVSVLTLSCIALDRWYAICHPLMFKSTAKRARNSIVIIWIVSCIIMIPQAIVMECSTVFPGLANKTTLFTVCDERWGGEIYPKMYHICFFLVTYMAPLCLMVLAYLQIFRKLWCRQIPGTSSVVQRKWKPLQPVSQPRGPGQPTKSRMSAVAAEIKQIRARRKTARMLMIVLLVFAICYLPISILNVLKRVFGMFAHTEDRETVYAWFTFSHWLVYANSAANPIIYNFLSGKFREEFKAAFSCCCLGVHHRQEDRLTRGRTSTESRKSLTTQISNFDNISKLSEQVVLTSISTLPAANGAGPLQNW

Structure (SMILES): COc1ccc2ccccc2c1C1CCCC(=O)N1Cc1cccc(-c2ncc(C)s2)c1 (stereo not drawn) [Example 446, 6-(2-methoxynaphthalen-1-yl)-1-(3-(5-methylthiazol-2-yl)benzyl)piperidin-2-one]
IC50 (human orexin-1 receptor; compound incubation 120 min): 12 nM | IC50 (human orexin-2 receptor; compound incubation 120 min): 59 nM

Structure (SMILES): COc1cccc(OC)c1C1CCCCC(=O)N1Cc1cccc(-c2cscn2)c1 (stereo not drawn) [Example 102, 7-(2,6-dimethoxyphenyl)-1-(3-(thiazol-4-yl)benzyl)azepan-2-one]
IC50 (human orexin-1 receptor; compound incubation 120 min): 6 nM | IC50 (human orexin-2 receptor; compound incubation 120 min): 19 nM

IC50 (human orexin-1 receptor; compound incubation 120 min): 1710 nM | IC50 (human orexin-2 receptor; compound incubation 120 min): 53 nM
Structure (SMILES): CCOc1cccc(F)c1[C@@H]1C[C@@H](O)C(=O)N1Cc1ccc(OC(F)(F)F)c(F)c1 (racemic) [Example 428, rac-(3R*,5S*)-5-(2-ethoxy-6-fluorophenyl)-1-(3-fluoro-4-(trifluoromethoxy)benzyl)-3-hydroxypyrrolidin-2-one]

Structure (SMILES): COc1cccc(OC)c1C1CC(C)C(=O)N1Cc1cccc(-c2nccs2)c1 (stereo not drawn) [Example 132, 5-(2,6-dimethoxyphenyl)-3-methyl-1-(3-(thiazol-2-yl)benzyl)pyrrolidin-2-one]
IC50 (human orexin-1 receptor; compound incubation 120 min): 4 nM | IC50 (human orexin-2 receptor; compound incubation 120 min): 44 nM

Structure (SMILES): CCOc1cccc(F)c1C1CC(C)C(=O)N1Cc1ccc(OC(F)(F)F)c(F)c1 (stereo not drawn) [Example 372, 5-(2-ethoxy-6-fluorophenyl)-1-(3-fluoro-4-(trifluoromethoxy)benzyl)-3-methylpyrrolidin-2-one]
IC50 (human orexin-1 receptor; compound incubation 120 min): 1490 nM | IC50 (human orexin-2 receptor; compound incubation 120 min): 115 nM

Structure (SMILES): COc1cccc(OC)c1C1CCCCC(=O)N1Cc1ccc2sc(C)nc2c1 (stereo not drawn) [Example 95, 7-(2,6-dimethoxyphenyl)-1-((2-methylbenzo[d]thiazol-5-yl)methyl)azepan-2-one]
IC50 (human orexin-1 receptor; compound incubation 120 min): 8 nM | IC50 (human orexin-2 receptor; compound incubation 120 min): 29 nM

Structure (SMILES): COc1cccc(OC)c1C1CCCC(=O)N1Cc1cn2ccccc2n1 (stereo not drawn) [Example 242, 6-(2,6-dimethoxyphenyl)-1-(imidazo[1,2-a]pyridin-2-ylmethyl)piperidin-2-one]
IC50 (human orexin-1 receptor; [1]): 17700 nM | IC50 (human orexin-2 receptor; [1]): 1390 nM

Structure (SMILES): Cc1nc(-c2cccc(CN3C(=O)C(C)CC3c3ccccc3-c3ccccc3)c2)cs1 (stereo not drawn) [Example 290, 5-([1,1′-biphenyl]-2-yl)-3-methyl-1-(3-(2-methylthiazol-4-yl)benzyl)pyrrolidin-2-one]
IC50 (human orexin-1 receptor; compound incubation 120 min): 103 nM | IC50 (human orexin-2 receptor; compound incubation 120 min): 455 nM

Structure (SMILES): COc1ccnc(OC)c1C1CC(C)C(=O)N1Cc1ccc2oc3ccccc3c2c1 (stereo not drawn) [Example 352, 1-(dibenzo[b,d]furan-2-ylmethyl)-5-(2,4-dimethoxypyridin-3-yl)-3-methylpyrrolidin-2-one]
IC50 (human orexin-1 receptor; compound incubation 120 min): 7 nM | IC50 (human orexin-2 receptor; compound incubation 120 min): 13 nM

Structure (SMILES): COc1cccc(F)c1C1CC(C)C(=O)N1Cc1ccnc(-n2cccn2)c1 (stereo not drawn) [Example 361, 1-((2-(1H-pyrazol-1-yl)pyridin-4-yl)methyl)-5-(2-fluoro-6-methoxyphenyl)-3-methylpyrrolidin-2-one]
IC50 (human orexin-1 receptor; compound incubation 120 min): 849 nM | IC50 (human orexin-2 receptor; compound incubation 120 min): 87 nM

Structure (SMILES): COc1cccc(OC)c1C1CC(C)C(=O)N1Cc1ccc(SC(F)(F)F)cc1 (stereo not drawn) [Example 398, 5-(2,6-dimethoxyphenyl)-3-methyl-1-(4-((trifluoromethyl)thio)benzyl)pyrrolidin-2-one]
IC50 (human orexin-1 receptor; compound incubation 120 min): 277 nM | IC50 (human orexin-2 receptor; compound incubation 120 min): 428 nM

Structure (SMILES): Cc1ccc(F)c(C2CCCC(=O)N2Cc2ccc(OC(F)(F)F)cc2)c1F (stereo not drawn) [Example 226, 6-(2,6-difluoro-3-methylphenyl)-1-(4-(trifluoromethoxy)benzyl)piperidin-2-one]
IC50 (human orexin-1 receptor; [1]): 5180 nM | IC50 (human orexin-2 receptor; [1]): 2440 nM

Structure (SMILES): COc1cccc(OC)c1C1CC(C)(C)C(=O)N1Cc1ccc(OC(F)(F)F)cc1 (stereo not drawn) [Example 217, 5-(2,6-dimethoxyphenyl)-3,3-dimethyl-1-(4-(trifluoromethoxy)benzyl)pyrrolidin-2-one]
IC50 (human orexin-1 receptor; [1]): 22 nM | IC50 (human orexin-2 receptor; [1]): 252 nM

Structure (SMILES): COc1cccc(OC)c1C1CCCC(=O)N1Cc1ccc2ccccc2c1 (stereo not drawn) [Example 238, 6-(2,6-dimethoxyphenyl)-1-(naphthalen-2-ylmethyl)piperidin-2-one]
IC50 (human orexin-1 receptor; [1]): 77 nM | IC50 (human orexin-2 receptor; [1]): 47 nM

IC50 (human orexin-1 receptor; compound incubation 120 min): 1860 nM | IC50 (human orexin-2 receptor; compound incubation 120 min): 170 nM
Structure (SMILES): CCOc1ccccc1[C@@H]1C[C@@H](O)C(=O)N1Cc1ccc(OC(F)(F)F)cc1 (racemic) [Example 299, rac-(3R*,5S*)-5-(2-ethoxyphenyl)-3-hydroxy-1-(4-(trifluoromethoxy)benzyl)pyrrolidin-2-one]
